Data reported in US20090088441A1, “Quinoline Compounds” (priority 2007, published 2009).

molecular target: T1, GABABR1a/GABABR2 heterodimer (Homo sapiens, UniProt O75899+Q9UBS5); experiment: GTPγS35 radioligand filtration-binding assay for determination of agonist potency; type: biochemical; details: membranes of CHO K1 Flp-In cells expressing GABABR1a/GABABR2; 30° C., 1 hour
T1 construct: expressed in transfected cells; membrane preparation
Description: The potency and efficacy of the compounds acting as agonists at the GABAB receptor was also determined in a automated GTPγS^35 radioligand filtration-binding assay.
The GABAB receptor is a G-protein coupled receptor. Binding of a ligand activates the receptor leading to recruitment of G-protein and a substitution of the G-protein bound GDP to GTP. The G-protein becomes active. The G-protein is inactivated by hydrolysis of GTP to GDP. G-proteins are membrane bound and therefore present in membrane preparations.
In the GTPγS^35 assay, GTP is not present but instead GTPγS^35 where one of the phosphate groups are substituted to a sulphur group which cannot be hydrolysed. Upon activation of the receptor, radiolabelled GTPγS^35 replaces the GDP. The complex cannot be inactivated and the radiolabelled complex is accumulating. At the end of the assay, the reaction mixture is filtered through a membrane-binding filter. Excess GTPγS^35 is removed by washing and the membrane bound S^35, which correlates to the degree of receptor activation, is measured with a β-Liquid Scintillation Counter.
The human GABABR1a was subcloned into pIRESneo3 (Clontech) using GABABR1a construct as a template (refseqN NM001470). GABABR2 was subcloned into pcDNA5/FRT (Invitrogen) using GABABR2 construct as a template (refseqN NM005458). The Kozak sequence GCCACC was introduced before the start codon in both constructs.
For generation of stable cell lines, CHO K1 Flp-In cells (Invitrogen) were grown in DMEM/F12 1:1 media supplemented with 10% FBS at 37° C. in a humidified CO2-incubator. The cells were detached with Accutase and 1.5 million cells were seeded into T75 flasks. After 24 h, transfection of the cells were performed with the GABABR2 construct. For generation of cell lines expressing GABABR2, GABABR2 plasmid (1 μg) and pOG44 from Invitrogen (9 μg) were mixed with 30 μl Lipofectamine 2000 in 600 μl OptiMEM for 20 minutes. The cells were exposed to transfection medium for 5 hours and was then replaced with culture medium. After 2 days 0.5 mg/ml Hygromycin were added to culture medium. The cells were cultured for an additional 10 days to establish a stable cell mix expressing GABABR2. For generation of a cell line expressing the GABABR1a/GABABR2 hetrodimer, GABABR1a plasmid DNA (8 μg) and Lipofectamine (30 μl) were mixed in 600 μl OptiMEM and incubated for 20 minutes before added to CHO-Flp-In cells expressing GABABR2. After 2 days additional selection agent was added (0.8 mg/ml Geneticin). The cells were cultured for another 10 days to generate a stable mixed population expressing the GABABR1a/GABABR2 heterodimer. The cell line was analyzed by GTPγS^35 assay with GABA as agonist.
GTPγS^35 radioligand filtration-binding assays were performed using an automated workstation at 30° C. for 1 hour in assay buffer (50 mM HEPES, 40 mM NaCl, 1 mM MgCl2×6H2O, 30 μg/mL Saponin, pH 7.4 at RT) containing 0.025 μg/μL of membrane protein (prepared from the cell line described above), 10 μM GDP and 0.55 nCi/μL GTPγS^35 in a final volume of 60 μL. The reaction was started by the addition of compounds (GABA was always included as a positive control), start concentration 100 μM dilution factor 3. The reaction was terminated and membranes collected by addition of ice-cold wash buffer (50 mM Tris-HCl, 5 mM MgCl2×6H2O, 50 mM NaCl, pH 7.4 at 4° C.) followed by rapid filtration under vacuum through a MultiScreen HTS 384 FB filter plate. Repeated washing of the filters with ice-cold wash buffer washed the unbound radioligand away. The filter plates were dried for 1½-2 hours at 50° C., then 8 μL scintillation liquid was added per well followed by incubation at RT for at least 20 minutes before bound radioactivity was determined using a β-Liquid Scintillation Counter (1450 Microbeta Trilux, Wallac, Finland)
100% activation (max) is calculated as the mean value for wells containing 1 mM GABA. […]

T1 sequence (Q9UBS5 15-961 limits assumed): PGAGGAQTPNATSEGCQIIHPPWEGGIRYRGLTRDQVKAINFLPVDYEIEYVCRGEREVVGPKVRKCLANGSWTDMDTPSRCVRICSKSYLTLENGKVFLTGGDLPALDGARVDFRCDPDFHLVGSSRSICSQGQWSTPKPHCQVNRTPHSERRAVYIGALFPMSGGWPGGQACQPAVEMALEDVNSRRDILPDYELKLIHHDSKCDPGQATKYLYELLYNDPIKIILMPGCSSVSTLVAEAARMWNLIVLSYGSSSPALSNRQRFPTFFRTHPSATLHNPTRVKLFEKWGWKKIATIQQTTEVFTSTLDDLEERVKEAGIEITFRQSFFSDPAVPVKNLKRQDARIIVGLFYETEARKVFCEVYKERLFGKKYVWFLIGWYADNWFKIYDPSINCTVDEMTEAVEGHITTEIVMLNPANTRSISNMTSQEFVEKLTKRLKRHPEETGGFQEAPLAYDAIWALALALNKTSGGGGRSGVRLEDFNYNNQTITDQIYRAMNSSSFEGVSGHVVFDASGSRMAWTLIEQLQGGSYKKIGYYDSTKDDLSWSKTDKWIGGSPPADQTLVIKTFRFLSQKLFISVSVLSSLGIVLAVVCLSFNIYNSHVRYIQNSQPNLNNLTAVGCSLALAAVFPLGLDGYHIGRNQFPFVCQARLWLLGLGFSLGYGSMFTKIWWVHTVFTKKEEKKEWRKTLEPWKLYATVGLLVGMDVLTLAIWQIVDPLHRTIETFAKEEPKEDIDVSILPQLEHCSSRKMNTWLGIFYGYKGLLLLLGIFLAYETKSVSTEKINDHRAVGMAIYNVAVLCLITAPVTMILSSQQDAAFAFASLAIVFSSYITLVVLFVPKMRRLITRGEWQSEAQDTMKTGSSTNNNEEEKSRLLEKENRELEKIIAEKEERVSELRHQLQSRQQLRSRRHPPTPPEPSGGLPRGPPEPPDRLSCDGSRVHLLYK
T1 sequence (O75899 42-941): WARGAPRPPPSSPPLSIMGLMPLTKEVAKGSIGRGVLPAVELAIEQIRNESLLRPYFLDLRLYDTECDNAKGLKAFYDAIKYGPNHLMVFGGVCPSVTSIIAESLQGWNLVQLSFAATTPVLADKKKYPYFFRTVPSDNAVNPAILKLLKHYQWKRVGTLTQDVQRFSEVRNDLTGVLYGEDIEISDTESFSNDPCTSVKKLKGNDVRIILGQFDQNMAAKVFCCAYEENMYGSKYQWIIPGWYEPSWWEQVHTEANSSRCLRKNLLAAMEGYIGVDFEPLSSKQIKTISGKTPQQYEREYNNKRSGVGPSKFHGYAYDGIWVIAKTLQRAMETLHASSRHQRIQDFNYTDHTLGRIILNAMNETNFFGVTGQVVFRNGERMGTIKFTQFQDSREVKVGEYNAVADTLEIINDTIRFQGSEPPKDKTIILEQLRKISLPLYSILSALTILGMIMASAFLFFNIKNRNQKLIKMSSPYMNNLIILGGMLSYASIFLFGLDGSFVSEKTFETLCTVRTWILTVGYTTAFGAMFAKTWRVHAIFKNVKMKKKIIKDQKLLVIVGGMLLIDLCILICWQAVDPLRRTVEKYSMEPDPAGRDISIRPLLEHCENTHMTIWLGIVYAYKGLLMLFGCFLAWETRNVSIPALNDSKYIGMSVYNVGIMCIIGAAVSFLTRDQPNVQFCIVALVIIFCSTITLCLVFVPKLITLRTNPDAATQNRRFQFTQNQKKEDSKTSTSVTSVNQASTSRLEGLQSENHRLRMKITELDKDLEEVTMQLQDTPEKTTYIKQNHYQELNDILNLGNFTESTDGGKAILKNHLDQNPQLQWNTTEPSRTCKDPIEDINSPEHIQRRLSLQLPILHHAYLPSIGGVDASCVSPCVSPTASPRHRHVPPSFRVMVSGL

SMILES	EC50
Cc1nc2ccc(N3CCCCC3)cc2c(-c2ccc(F)cc2)c1C(C)Oc1cccc(N(C)C)c1 (stereo not drawn) [Example 12, (3-{1-[4-(4-fluorophenyl)-2-methyl-6-piperidin-1-ylquinolin-3-yl]ethoxy}phenyl)dimethylamine]	2200 nM
Cc1nc2ccc(N3CCCCC3)cc2c(-c2ccc(F)cc2)c1C(C)Oc1ccc(C#N)cc1 (stereo not drawn) [Example 6, 4-{1-[4-(4-fluorophenyl)-2-methyl-6-piperidin-1-ylquinolin-3-yl]ethoxy}benzonitrile]	2900 nM
Cc1nc2ccc(N3CCCCC3)cc2c(-c2ccc(F)cc2)c1C(C)Oc1ccc(S(C)(=O)=O)cc1 (stereo not drawn) [Example 8, 4-(4-fluorophenyl)-2-methyl-3-{1-[4-(methylsulfonyl)phenoxy]ethyl}-6-piperidin-1-ylquinoline]	1700 nM
Cc1nc2ccc(N3CCCCC3)cc2c(-c2ccc(F)cc2)c1C(C)Oc1ccccc1C#N (stereo not drawn) [Example 15, 2-{1-[4-(4-fluorophenyl)-2-methyl-6-piperidin-1-ylquinolin-3-yl]ethoxy}benzonitrile]	900 nM
Cc1nc2ccc(N3CCCCC3)cc2c(-c2ccc(F)cc2)c1C(C)Oc1cccc(C(N)=O)c1 (stereo not drawn) [Example 14, 3-{1-[4-(4-fluorophenyl)-2-methyl-6-piperidin-1-ylquinolin-3-yl]ethoxy}benzamide]	4500 nM
Cc1nc2ccc(N3CCCCC3)cc2c(-c2ccc(F)cc2)c1C(C)Oc1ccccc1Cl (stereo not drawn) [Example 10, 3-[1-(2-chlorophenoxy)ethyl]-4-(4-fluorophenyl)-2-methyl-6-piperidin-1-ylquinoline]	1300 nM
COc1ccc(OC(C)c2c(C)nc3ccc(N4CCCCC4)cc3c2-c2ccc(F)cc2)cc1 (stereo not drawn) [Example 11, 4-(4-fluorophenyl)-3-[1-(4-methoxyphenoxy)ethyl]-2-methyl-6-piperidin-1-ylquinoline]	1600 nM
Cc1nc2ccc(N3CCCCC3)cc2c(-c2ccc(F)cc2)c1C(C)Oc1cccnc1 (stereo not drawn) [Example 9, 4-(4-fluorophenyl)-2-methyl-6-piperidin-1-yl-3-[1-(pyridin-3-yloxy)ethyl]quinoline]	3000 nM
Cc1nc2ccc(N3CCCCC3)cc2c(-c2ccc(F)cc2)c1C(C)Oc1ccccc1C(C)C (stereo not drawn) [Example 13, 4-(4-fluorophenyl)-3-[1-(2-isopropylphenoxy)ethyl]-2-methyl-6-piperidin-1-ylquinoline]	300 nM
Cc1nc2ccc(N3CCCCC3)cc2c(-c2ccc(F)cc2)c1C(C)Oc1cccc(C#N)c1 (stereo not drawn) [Example 7, 3-{1-[4-(4-fluorophenyl)-2-methyl-6-piperidin-1-ylquinolin-3-yl]ethoxy}benzonitrile]	1500 nM

Now from value to compound:

EC50	SMILES
1200 nM	Cc1nc2ccc(N3CCCCC3)cc2c(-c2ccc(F)cc2)c1C(C)Oc1ccc(O)cc1 (stereo not drawn) [Example 19, 4-{1-[4-(4-fluorophenyl)-2-methyl-6-piperidin-1-ylquinolin-3-yl]ethoxy}phenol]
4300 nM	Cc1nc2ccc(N3CCN(C)CC3)cc2c(-c2ccc(F)cc2)c1C(C)Oc1ccccc1C(C)C (stereo not drawn) [Example 18, 4-(4-fluorophenyl)-3-[1-(2-isopropylphenoxy)ethyl]-2-methyl-6-(4-methylpiperazin-1-yl)quinoline]
24000 nM	Cc1nc2ccc(N3CCCCC3)cc2c(-c2ccc(F)cc2)c1C(C)n1ccccc1=O (stereo not drawn) [Example 16, 1-{1-[4-(4-fluorophenyl)-2-methyl-6-piperidin-1-ylquinolin-3-yl]ethyl}pyridin-2(1H)-one]
1100 nM	Cc1nc2ccc(N3CCCCC3)cc2c(-c2ccc(F)cc2)c1COc1ccc(Cl)cc1 [Example 25, 3-[(4-chlorophenoxy)methyl]-4-(4-fluorophenyl)-2-methyl-6-piperidin-1-ylquinoline]
7600 nM	Cc1nc2ccc(N3CCN(C)CC3)cc2c(-c2ccc(F)cc2)c1C(C)Oc1ccc(Cl)cc1 (stereo not drawn) [Example 17, 3-[1-(4-chlorophenoxy)ethyl]-4-(4-fluorophenyl)-2-methyl-6-(4-methylpiperazin-1-yl)quinoline]
